Source: US7122518B2, “Method for preventing or reducing collateral phototoxic damage to neighboring tissues during photodynamic therapy of a target tissue” (New York University, priority 2002, dated 2006)
“Also recorded” adds a separate entry of the source. Read-outs that look alike come from different tables or passages of the source.

What was measured:
ARPE cells = assay: Competitive quenching by hypericin versus DTHe in ARPE cells (Hemacolor viability); settings: for cell viability: 1.73 J/cm^2, Hemacolor after 24 hrs (FIG. 7A)
Description: The cells were treated with the added dianthraquinone compounds for 3 hrs. and with added verteporfin for the last two hrs. The cells were then exposed to 1.73 J/cm^2 of light irradiation at >650 nm and cell viability monitored after 24 hrs. in culture.
(§1) For the Hemacolor assay the cells were fixed with methanol, stained with Hemacolor reagents (Merck, Darmstadt, Germany), the dye eluted and quantified in an ELISA reader at 650 nm. PDT efficacy was expressed as percentage of viable cells in treated wells relative to untreated controls, calculated as (OD650, treated/OD650, untreated)×100.
ARPE or EH endothelial hybridoma cells were seeded at 5×10^4 cells/well in 96 well flat bottom microplates. The cells were allowed to adhere overnight, after which time DTHe or hypericin were added to ARPE cells (FIG. 7A) or to endothelial hybridoma cells (FIG. 7B) at concentrations of 10 or 20 μg/ml and the cells incubated at 37° C. in complete darkness. After one hour incubation with hypericin, verteporfin at concentrations of 0.1, 0.25 and 0.5 μg/ml was added to the cultures, which were then incubated at 37° C. for two additional hours. The supernatants were removed, the cells washed with PBS and the cultures exposed to light irradiation at a dose of 1.73 J/cm^2 at 689 nm. The cultures were then incubated at 37° C. for an additional 24 hrs and cell viability was then determined via the hemacolor assay.

EH endothelial cells = assay: Protection of EH endothelial cells from verteporfin-induced phototoxicity (viability); settings: for viability at 20 µM: Homo sapiens, Endothelial cell, light or radiation study
Description: (§2) ARPE or EH cells were plated in 96 well flat bottom microplates 2×10^4 cells/well. The cells were allowed to attach to the plate surface and hypericin was added to the cultures in complete darkness (ambient light kept below <0.03 mW/cm^2 to prevent hypericin-mediated phototoxicity) for time intervals ranging from 3–6 hrs. Verteporfin was then added and was present for the last two hours of the incubation period. At the end of incubation period, the growth medium containing hypericin and verteporfin was removed and replaced with phosphate buffered saline (PBS) and then photosensitized with red light using a fiber-optic non-coherent light delivery system (SeNet Ltd, Israel) in combination with K700 broadband interference filter with central wavelengths at 700 nm and half-height bandwidth of ±40 nm (Rolyn Optics, Covina, Calif.) to selectively excite verteporfin but not hypericin (excitable at 546 and 590 nm). The cultures were then returned to standard growth medium, cultured for 24 hrs in a 37° C., 5% CO2 and cell viability then assayed by the MTT or Hemacolor assays. The fluence rate (mW/cm^2) was measured with a Model IL 1400A radiometer/photometer (International Light Inc., Newburyport, Mass.).
Two methods have been used to monitor cell viability: the MTT assay which measures reduction of MTT to formasan by mitochondria of viable cells and by the Hemacolor assay, a calorimetric microtiter assay that quantifies the amount of dye that binds to viable adherent cells (Keisari, 1992). The cells were plated in flat-bottomed 96 well plates in 200 μl medium containing the photosensitizer. MTT was added to the cells following light irradiation and the plates were incubated for three hours and then analyzed in an ELISA reader at 560 nm. Corrections were made for non-specific absorption of MTT subtracting background values generated in cell free blank wells containing medium and HY at each dose level and MTT.
as §1
EH cells were used for this purpose.

ARPE-19 cells = assay: Protection of ARPE cells from verteporfin-induced phototoxicity (MTT viability); settings: for viability at 20 µM: Homo sapiens, ARPE-19, light or radiation study
Description: as §2, with “The cultures were then returned to standard growth medium, cultured for 24 hrs in a 37° C., 5% CO2 and cell viability then assayed by the MTT or Hemacolor assays.” left out
Two methods have been used to monitor cell viability: the MTT assay which measures reduction of MTT to formasan by mitochondria of viable cells and by the Hemacolor assay, a calorimetric microtiter assay that quantifies the amount of dye that binds to viable adherent cells (Keisari, 1992). […] MTT was added to the cells following light irradiation and the plates were incubated for three hours and then analyzed in an ELISA reader at 560 nm. […]
In order to examine whether the red/ox properties of hypericin in the dark can impact on the phototoxic properties of verteporfin (VP), retinal pigmented epithelial cells (ARPE-19) in monolayer cultures were loaded with hypericin by exposure to 5, 10 and 20 μM of this compound for three and six hrs. […] Following irradiation, drug-free fresh medium was introduced, the cells incubated at 37° C. in a 5% CO2 incubator for additional 24 hrs and cell viability then monitored using the MTT assay.

[1] = cited from earlier work
[2] = Hypericin distribution among the layers of the retina after i.v. administration
Description: Rats were sacrificed at 15 min, 2 hrs, 6 hrs and 8 hrs after i.v. administration of hypericin, 2 mg/kg. The eyes were enucleated and frozen initially at −80° C. and subsequently in liquid nitrogen and several cryostat sections (5-μm width) sliced from each sample. To prevent hypericin extraction from the retinal tissues during staining the histological tissue distribution of hypericin among the different layers of the retina was initially examined under an Olympus phase contrast and fluorescence microscope, and the data photographed with a computer-linked digital camera (Multipixel Spectral Imaging System, Applied Spectral Imaging Inc., Israel. Hypericin was excited at 477 nm and its fluorescence recorded by documenting emission intensity at 602 nm. The photographed locations were marked and the sections then stained with Hematoxylin-eosin (H&E) for confirmation of retinal layer identity and compared to the corresponding fluorescence and light microscopy images.
Hypericin at a dose of 2 mg/kg was administered to the tail vein. At 15 minutes, 2, 4, 6 and 8 hrs the rats were anesthesized, the eyes enucleated and frozen sections prepared. The sections were then analyzed by Multipixel Spectral Imaging.

[3] = Biodistribution of hypericin in tissues of tumor-bearing mice (fluorescence); format: in vivo; settings: BALB/c mice bearing breast adenocarcinoma tumors, preliminary (FIG. 5)
Description: The present inventor aimed to overcome this obstacle by using pharmacokinetic considerations. Hypericin is a lipophilic agent with an alpha half life of approximately 1–2 hours in the circulation. […] It is therefore possible to generate conditions in which hypericin has cleared from the circulation and concentrated in the tissues where it can be useful in protecting from collateral photodynamic damage.

[4] = in vivo, iv; cited from earlier work
[5] = verteporfin 0.25 μg/ml plus quencher 10 μg/ml
[6] = verteporfin 0.25 μg/ml plus quencher 20 μg/ml

Cc1ccc2c(=O)c3c(O)cc(O)c4c5c(O)cc(O)c6c(=O)c7ccc(C)cc7c(c65)c(c2c1)c34 [DTHe, dimethyl tetrahydroxy helianthrone]
competitive quenching of verteporfin-mediated phototoxicity relative to hypericin (ARPE cells; ARPE cells, 10 and 20 μg/ml): much less effective
cell viability (ARPE cells; [5]): 7.5%
cell viability (ARPE cells; [6]): 6%

Cc1cc(O)c2c(=O)c3c(O)cc(O)c4c5c(O)cc(O)c6c(=O)c7c(O)cc(C)c8c1c2c(c34)c(c78)c65 [hypericin]
viability at 20 µM (EH endothelial cells; read-out: EH cell viability, verteporfin 0.1 μg/ml plus hypericin 20 μM, 0.96 J/cm^2 (FIG. 3A)): 73%
viability at 20 µM (EH endothelial cells; read-out: EH cell viability, verteporfin 0.25 μg/ml plus hypericin 20 μM, 0.96 J/cm^2 (FIG. 3A)): 81%
viability at 20 µM (EH endothelial cells; read-out: EH cell viability, verteporfin 0.5 μg/ml plus hypericin 20 μM, 0.96 J/cm^2 (FIG. 3A)): 49%
EH cell protection from verteporfin-induced phototoxicity (EH endothelial cells; higher doses of light irradiation, 1.73 J/cm^2 (FIG. 3B)): also maintained at higher doses of light irradiation, yet the absolute levels of protection declined
cell viability (ARPE cells; [5]): 35%
cell viability (ARPE cells; [6]): 32%
viability at 20 µM (ARPE-19 cells; read-out: percent cell viability, verteporfin 0.25 μg/ml plus hypericin 20 μM, 0.75 J/cm^2 >650 nm (FIG. 2A)): 60%
viability at 20 µM (ARPE-19 cells; read-out: percent cell viability, verteporfin 0.5 μg/ml plus hypericin 20 μM, 0.75 J/cm^2 >650 nm (FIG. 2A)): 25%
cell viability preserved (ARPE-19 cells; verteporfin 2 μg/ml, hypericin loaded before photosensitization, RPE or endothelial cells, cell line not specified): up to 46.8%
alpha half-life in the circulation ([1]; circulation): 1 to 2 h
elimination half-life ([1]; human, in vivo): ~48 h
gamma elimination half life from tissues ([1]; in vivo): approximately 48 hrs
retinal distribution of hypericin fluorescence ([2]; 15 minutes after 2 mg/kg i.v., rats (FIG. 6A)): confined to the choroidal blood vessels; also recorded: confined mainly to the vasculature
retinal distribution of hypericin fluorescence ([2]; 2 hrs after 2 mg/kg i.v., rats (FIG. 6B)): spreads to the entire retina; also recorded: extravasated to the surrounding tissue was less evident within the vasculature and spread through the choroid
retinal distribution of hypericin fluorescence ([2]; 6 hrs after 2 mg/kg i.v., rats (FIG. 6C)): present only in the retina and not in the blood vessels; also recorded: spread to the entire retina
confinement to the choroidal vasculature ([2]; after i.v. administration to rats (discussion)): mainly confined to the choroidal vasculature for up to one hour
bioavailability to the retina ([2]; hypericin 2 mg/kg i.v. tail vein, rats): bioavailable to the retina
clearance from choroidal vessels and tissue accumulation ([2]; rat, in vivo, iv): beyond 2 hrs was cleared from the choroidal vessels and accumulated in the extravascular choroid and RPE
tissue biodistribution [3]: sequester in various tissues for many hours

verteporfin
time remaining in the intravascular compartment [4]: 30 min
